According to the supplement of paper PMC13380429:

Legend:
Details in all cases: 72 h
[1] = system: Caco-2; assay: cell viability relative to DMSO; higher = less toxic
[2] = system: Calu-3; assay: as above
[3] = system: HepG2; assay: as above
[4] = system: U2OS; assay: as above
[5] = system: Vero E6; assay: as above
[6] = system: Caco-2; assay: relative viability EC50 (midpoint between 100% and the lowest measured viability); higher = less toxic
[7] = system: Calu-3; assay: as above
[8] = system: HepG2; assay: as above
[9] = system: U2OS; assay: as above
[10] = system: Vero E6; assay: as above
[11] = system: Caco-2; assay: drug sensitivity score (DSS) for viability; higher = more toxic; extreme values may be limits of the assay
[12] = system: Calu-3; assay: as above
[13] = system: HepG2; assay: as above
[14] = system: U2OS; assay: as above
[15] = system: Vero E6; assay: as above

Row | Compound | cell viability ([1]; 1 nM) [%] | cell viability ([1]; 10 nM) [%] | cell viability ([1]; 100 nM) [%] | cell viability ([1]; 1000 nM) [%] | cell viability ([1]; 10000 nM) [%] | cell viability ([2]; 1 nM) [%] | cell viability ([2]; 10 nM) [%] | cell viability ([2]; 100 nM) [%] | cell viability ([2]; 1000 nM) [%] | cell viability ([2]; 10000 nM) [%] | cell viability ([3]; 1 nM) [%] | cell viability ([3]; 10 nM) [%] | cell viability ([3]; 100 nM) [%] | cell viability ([3]; 1000 nM) [%] | cell viability ([3]; 10000 nM) [%] | cell viability ([4]; 1 nM) [%] | cell viability ([4]; 10 nM) [%] | cell viability ([4]; 100 nM) [%] | cell viability ([4]; 1000 nM) [%] | cell viability ([4]; 10000 nM) [%] | cell viability ([5]; 1 nM) [%] | cell viability ([5]; 10 nM) [%] | cell viability ([5]; 100 nM) [%] | cell viability ([5]; 1000 nM) [%] | cell viability ([5]; 10000 nM) [%] | relative viability EC50 [6] [µM] | relative viability EC50 [7] [µM] | relative viability EC50 [8] [µM] | relative viability EC50 [9] [µM] | relative viability EC50 [10] [µM] | drug sensitivity score [11] | drug sensitivity score [12] | drug sensitivity score [13] | drug sensitivity score [14] | drug sensitivity score [15]
1 | Clc1cccc(Nc2nnc(-c3ccccc3)c3ccccc23)c1 [MY-5445] | 93 | 104 | 94.7 | 104 | 97.9 | 95.2 | 97.7 | 88.2 | 104 | 104 | 104 | 98.4 | 107 | 104 | 103 | 95 | 98.2 | 95.6 | 99.8 | 101 | 96.6 | 96.7 | 95.8 | 92.1 | 106 | > 10 | > 10 | > 10 | > 10 | > 10 | 0 | 0 | 0 | 0 | 0
2 | Cc1ncc(COP(=O)([O-])[O-])c(CN(CCN(CC(=O)O)Cc2c(COP(=O)([O-])O)cnc(C)c2O)CC(=O)O)c1O.[Mn].[Na+].[Na+].[Na+] [Mangafodipir (trisodium)] | 95.1 | 99.5 | 94.5 | 108 | 135 | 91.5 | 107 | 104 | 87.6 | 103 | 110 | 89.4 | 105 | 101 | 98.4 | 95.1 | 100 | 94.7 | 93.4 | 101 | 111 | 99.7 | 107 | 97 | 99.2 | > 10 | > 10 | > 10 | > 10 | > 10 | 0 | 0 | 0 | 0 | 0
3 | Cc1cc(=O)n(-c2ccccc2)[nH]1 [N-demethylantipyrine] | 99.3 | 97.2 | 102 | 84.8 | 99.8 | 102 | 107 | 98.5 | 97 | 106 | 94.1 | 106 | 95.3 | 107 | 93.8 | 101 | 99.7 | 98.7 | 102 | 98.5 | 104 | 101 | 94.2 | 95.2 | 102 | > 10 | > 10 | > 10 | > 10 | > 10 | 0 | 0 | 0 | 0 | 0
4 | CN[C@H](CC(=O)O)C(=O)O [NMDA] | 101 | 97.5 | 103 | 103 | 88 | 85.4 | 88.6 | 87.7 | 105 | 89.4 | 99.9 | 102 | 110 | 104 | 102 | 95.1 | 96.8 | 91.7 | 102 | 91.5 | 107 | 107 | 104 | 99.5 | 107 | > 10 | > 10 | > 10 | > 10 | > 10 | 0 | 0 | 0 | 0 | 0
